In data set [1] the test system is human ARC tissues (human chondrocytes) stimulated with TNFα, IL-1β or IL-6 + IL-6SR. Kind of data set: Human ARC tissues: GAG release. Format: cell-based. As to the method: Glycosaminoglycan (GAG) levels in the culture media were determined by measuring the amount of polyanionic material reacting with 1,9-dimethylmethylene blue (DME) as detected by absorbance at 525 nm, using shark chondroitin sulfate as a standard. The DME blue dye-binding solution was prepared by dissolving 16 mg of DME blue in a solution containing 0.304% glycine, 0.23% sodium chloride (NaCl), 9.5 mM hydrochloric acid (HCl), pH=3.0 with absorbance at 525 equal to 0.31. Proteoglycans and proteoglycan metabolites in chondrocyte pellet were released by digesting the pellet with 125 μg/ml of papain in 0.1 M PBS, pH 6.0, 5 mM cysteine, 5 mM ethylene-diamine-tetra-acetic acid disodium salt (Na2EDTA) at 50° C. for overnight. Results are reported as either micrograms of GAG per milliliter or percent of total GAG released into culture medium.
(§1) ® infliximab is a monoclonal antibody against human TNFα. To test whether […]® could modulate cytokine-stimulated responses in chondrocytes, human chondrocyte pellets were first tested for an optimal concentration for cytokine stimulation. Human ARC (i.e., ARCs generated using human chondrocytes) tissues were treated with various concentrations of either TNF or IL-1 for four and five days. The culture media was collected for measurement of GAG content as described above. Other assays were performed as described above. Cytokine dosage at 5 ng/ml and treatment for five days gave a reasonable treatment window, yet was not too challenging for compound efficacy (FIG. 4).
(§2) Human ARC tissues were then treated with various concentrations of […]® in the presence or absence of either 10 ng/ml of TNFα or 5 ng/ml of IL-1β for four or five days.
The efficacy of a monoclonal antibody (mAb) against human IL-6 in inhibition of proteoglycan degradation, NO production and PGE2 synthesis on human ARC tissues stimulated with IL-6 was also tested. Human ARC tissue were treated with 12.5, 25 and 250 ng/ml of IL-6 mAb diluted into chondrocyte stimulation medium. […]

For data set [2] the following is noted: in vivo; cited from earlier work.
The test system of data set [3] is cytokine-stimulated PGE2 synthesis in human ARC tissues. Nature of the data set: Human ARC tissues: PGE2 synthesis. Format: cell-based. To be noted: for PGE2 Inhibition, Pellet Assay: TNFα stimulated responses. How it is done:
Prostaglandin E2 (PGE2) was measured with a STAT-Prostaglandin E2 EIA ELISA kit (Cayman Biochemicals). This assay is based on the competition between PGE2 from 50 μl samples and a PGE2-alkaline phosphatase conjugate for a limited amount of PGE2 monoclonal antibody in a reaction volume of 150 μl at room temperature for one hour. The antibody-PGE2 complex bound to a goat polyclonal anti-mouse IgG that had been previously attached to the well. After washing to remove any unbound reagents, para-nitrophenyl phosphate (pNPP) was added to the well. The product of this enzymatic reaction absorbs strongly at 412 nm. Because of the large range in response to IL-1β and other cytokines, PGE2 values were converted to log scale prior to doing t-tests.
as §1, §2
The efficacy of a monoclonal antibody (mAb) against human IL-6 in inhibition of proteoglycan degradation, NO production and PGE2 synthesis on human ARC tissues stimulated with IL-6 was also tested. Human ARC tissue were treated with 12.5, 25 and 250 ng/ml of IL-6 mAb diluted into chondrocyte stimulation medium. After one hour of treatment at 37° C., ARCs were stimulated with or without 25 ng/ml IL-6, 250 ng/ml IL-6 soluble receptor (IL-6SR) or IL-6 (25 ng/ml)+L-6SR (250 ng/ml) and incubated for five days before the culture media were harvested for assays.

Data set [4] has as its system cytokine-stimulated NO production in human ARC tissues. Kind of data set: Human ARC tissues: NO production. Format: cell-based. As to the method:
Nitrate/Nitrite levels were measured using the Griess reaction (Green L. C. et al., “Analysis of Nitrate, Nitrite, and [15N]nitrate in Biological Fluids,” Anal. Biochem. 126: 131-138 (1982)) with a Nitrate/Nitrite Colorimetric Assay Kit (Cayman Chemicals), the contents of which are incorporated herein by reference. The assay involved a simple two-step process. The first step involved conversion of nitrate in 50 μl of culture medium to nitrite utilizing nitrate reductase in a reaction volume of 100 μl at room temperature for two hours. The second step involved the addition of 50 μl of both Griess Reagent 1 and 2, which converted nitrite into a deep purple azo compound in ten minutes. Photometric measurement of the absorbance at 540 or 550 nm due to this azo chromophore accurately determined nitrite concentration. This assay kit cannot be used for RPMI (Roswell Park Memorial Institute) derived tissue culture medium due to interference with the colorimetric reaction.
as §1, §2
The efficacy of a monoclonal antibody (mAb) against human IL-6 in inhibition of proteoglycan degradation, NO production and PGE2 synthesis on human ARC tissues stimulated with IL-6 was also tested. […]

Data set [5] relates to aggrecan and collagen type 2 mRNA in bovine AF and NP cells. Nature of the data set: 3D in vitro disc cell model: Taqman gene expression. Format: cell-based. To be noted: 10 ng/ml IL-1β; inhibitor 1 μM, rhGDF-5 200 ng/ml. The source says: (§3) Three-dimensional in vitro annulus fibrosis (AF) and nucleus pulposus (NP) models were established to investigate proteoglycan modulation and changes in gene expression in response to inflammatory cytokines such as interleukin-1 (e.g., IL-1β) and potential therapeutic agents such as growth and differentiation factor (GDF-5), and p38 MAP kinase inhibitors. AF and NP cells from bovine caudal discs were isolated by enzymatic digestion and seeded (2×10^6 cells/cm^2) onto Millipore CM filters coated with Collagen Type II and cultured in DMEM/20% heat-inactivated FBS, 100 ug/ml ascorbic acid and 5 ng/ml TGFβ1. […] Results were evaluated by histology (Tol. Blue staining was used to observe matrix production). Dimethylmethylene blue (DMMB) was used to detect sulphated glycosaminoglycans in a GAG/DNA assay. Taqman analysis was performed on aggrecans (AGG), collagen type 1 (col-1), collagen type 2 (col-2), and MMP 3, MMP 9 and MMP 13. In FIGS. 19A-C and 20A-C, annulus fibrosus and nucleus pulposus cells from bovine caudal discs were isolated by enzymatic digestion and seeded (2×10^6 cells/cm2) onto Millipore CM filters coated with Collagen Type II and cultured in DMEM/20% heat-inactivated FBS/100 ug/ml ascorbic acid and 5 ng/ml TGF-β1.

Data set [6] concerns annulus fibrosus and nucleus pulposus cells from bovine caudal discs treated with IL-1β. Nature of the data set: 3D in vitro disc cell model: GAG (DMMB). To be noted: 10 ng/ml IL-1β; inhibitor 1 μM, rhGDF-5 200 ng/ml. Format: cell-based.
Source text: as §3

[7] abbreviates: 10 ng/ml TNFα, four or five days.
Where [8] appears, read: at 1 ng/ml, TNFα stimulated responses.

Turning to “REMICADE®: monoclonal antibody against human TNFα”, the “IL-1β stimulated responses: GAG release (in words)” value in data set [1] (5 ng/ml IL-1β) is reported as “little effect”. The “TNFα-induced GAG release (in words)” value in data set [1] (setting [7]) is “strongly inhibited”. Also, the “GAG Release (inhibition), Pellet Assay” value in data set [1] (setting [8]) worked out at 100% at 1 ng/ml. For the same molecule, the “half-life when administered systemically” value in data set [2] is “about 1 week”. Besides, the “IL-1β stimulated responses: PGE2 synthesis (in words)” value in data set [3] (5 ng/ml IL-1β) is reported as “little effect”. Besides, the “TNFα-induced PGE2 synthesis (in words)” value in data set [3] (setting [7]) is on record as “strongly inhibited”. Besides, the “PGE2 Inhibition, Pellet Assay” value in data set [3] (at 1 ng/ml) turned out to be 50% at 1 ng/ml; in data set [3] (at 10 ng/ml), 100% at. The “IL-1β stimulated responses: NO production (in words)” value in data set [4] (5 ng/ml IL-1β) was “little effect”. The “TNFα-induced NO production (in words)” value in data set [4] (setting [7]) is listed as “strongly inhibited”. In data set [4] (setting [8]), the “NO Inhibition, Pellet Assay” value worked out at 100% at.

B1: rhGDF-5: growth and differentiation factor, member of the BMP family and TGF-beta superfamily (protein, UniProt P43026 382-501, looked up)
Growth/differentiation factor …: APLATRQGKRPSKNLKARCSRKALHVNFKDMGWDDWIIAPLEYEAFHCEGLCEFPLRSHLEPTNHAVIQTLMNSMDPESTPPTCCVPTRLSPISILFIDSANNVVYKQYEDMVVESCGCR
With B1, the “gene expression of Agg and Col 2 (in words)” value in data set [5] is listed as “restored”. Moreover, the “amount of GAG in the tissue (in words)” value in data set [6] is “restored”.
